Source: patent US20250009914A1, “METHOD FOR SYNTHESIZING HYALURONIC ACID NANOPARTICLES, AND HYALURONIC ACID NANOPARTICLES PREPARED BY METHOD” (Kyungpook National University Industry-Academic Cooperation …, priority 2019, published 2025)

What was measured:
[1] = tested on: B16F10 mouse melanoma cell line; test: Melanin contents assay; type: cell-based; conditions: B16F10, 48 hours; substance left 24 hours at 50° C. compared with −20° C., FIG. 23
Procedure: Whitening efficacy evaluation was measured by melanin contents assay and cellular tyrosinase activity assay after treating each experimental substance to a B16F10 mouse melanoma cell line and incubating the each experimental substance for 48 hours. As a control, ascorbic acid, ascorbic acid-2-glucoside (AA2G) and HAI (Oligo-HA) used in Example 2 were used. The substances used in the experiment were all left for 24 hours at −20° C. or 50° C. and then used in the experiment.

cellular tyrosinase = molecular target: T1, cellular tyrosinase (Mus musculus, UniProt P11344); test: Cellular tyrosinase activity assay; type: cell-based; conditions: B16F10, 48 hours; substance left 24 hours at 50° C. compared with −20° C., FIG. 23
T1 construct: Cell line: B16F10 mouse melanoma (Passage 10), 6 well plate; endogenous in cells; host or cells: B16F10 mouse melanoma cells
T1 sequence (P11344 19-533): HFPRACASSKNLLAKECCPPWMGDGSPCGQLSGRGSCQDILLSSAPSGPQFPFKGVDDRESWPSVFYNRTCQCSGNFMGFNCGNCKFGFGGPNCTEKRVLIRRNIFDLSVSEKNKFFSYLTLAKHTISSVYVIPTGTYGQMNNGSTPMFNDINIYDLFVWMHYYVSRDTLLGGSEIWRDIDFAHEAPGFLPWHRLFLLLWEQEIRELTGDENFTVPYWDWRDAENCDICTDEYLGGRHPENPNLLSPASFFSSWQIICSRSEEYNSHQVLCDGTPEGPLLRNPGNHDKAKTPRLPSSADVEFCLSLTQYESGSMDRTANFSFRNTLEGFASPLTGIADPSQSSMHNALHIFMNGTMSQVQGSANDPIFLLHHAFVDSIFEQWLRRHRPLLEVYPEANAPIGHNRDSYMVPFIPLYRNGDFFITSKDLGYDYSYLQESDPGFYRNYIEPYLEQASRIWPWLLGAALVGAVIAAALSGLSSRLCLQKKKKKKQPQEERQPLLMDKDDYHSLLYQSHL
Procedure: Cell line: B16F10 mouse melanoma (Passage 10), 6 well plate, 4×10^5 cells/well
Evaluation method: Cellular tyrosinase activity assay
Experimental substance treatment time: 48 hours
Experimental substance treatment concentration: See FIG. 25

[2] = tested on: HDF-neo, Human primary dermal fibroblast-neonatal; test: Fibroblast proliferation, WST-8 assay (Ez-cytox); type: cell-based; conditions: 3 day, serum free condition, FIG. 26
Procedure: Next, the fibroblast proliferation effect was evaluated according to a conventional known method.
Evaluation method: WST-8 assay (Ez-cytox) and Procollagen ELISA (Takara #MK101)

[3] = Thermal stability evaluation by HPLC; type: physicochemical; conditions: aqueous solution 100 uM, 50° C. for 48 hours

Row | SMILES | melanin production (whitening efficacy) [1] | tyrosinase activity (whitening efficacy) (cellular tyrosinase) | fibroblast proliferation promoting efficacy [2] | oxidation over time [3]
1 | O=C1O[C@H]([C@@H](O)CO)C(O)=C1O [ascorbic acid] | whitening efficacy disappeared | whitening efficacy disappeared | almost not shown | not oxidized over time
2 | CCCCCCCCCCCCCCCC(=O)OCC(O)C1OC(=O)C(OP(=O)(O)O)=C1O (stereo not drawn) [APPS] | – | – | almost not shown | –
3 | O=C1O[C@H]([C@@H](O)CO)C(O)=C1O[C@H]1O[C@H](CO)[C@@H](O)[C@H](O)[C@H]1O [AA2G, ascorbic acid-2-glucoside] | – | – | almost not shown | –
